Our source for the TGI and GI50 values is PubChem BioAssay (NCI).

Among the test systems are UACC-62 melanoma; IGROV1 ovarian; SNB-75 CNS; UO-31 renal; M14 melanoma; LOX IMVI melanoma; MCF7 breast; HS 578T breast; MALME-3M melanoma; BT-549 breast.
Assay in all cases: inhibition of tumour cell growth, NCI panel, 48 h

SMILES strings stand for the structures.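 Five compound concentrations were applied to cells in 96-well plates for 48 hours; endpoints were derived by simple linear interpolation of the resulting dose-response curve. GI50: concentration for 50% inhibition of growth. TGI denotes the concentration required for complete inhibition of growth.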

`CCOC(=O)C1=C(C)N(Cc2ccccc2)C(=O)C1CC#N` (stereo not drawn): the TGI in the test on UACC-62 melanoma, in the test on IGROV1 ovarian, in the test on SNB-75 CNS, with UO-31 renal and in the test with M14 melanoma was over 100 µM each time.
As to `CN(C)CCC=C1c2ccccc2C(C)(C)c2ccccc21`, the GI50 with UACC-62 melanoma is 11.6 µM; with IGROV1 ovarian it was 15900 nM; with SNB-75 CNS, 2860 nM; in the test on UO-31 renal it was 4.8 µM; in the test with M14 melanoma, 2940 nM; in the test on LOX IMVI melanoma it was 9.46 µM. Moreover, the GI50 was 10.2 µM in the test on MCF7 breast and 9.03 µM in the test on HS 578T breast. In addition, the TGI with UACC-62 melanoma is 27 µM; in the test with IGROV1 ovarian it was 31.7 µM; in the test with SNB-75 CNS, 17.6 µM; in the test on UO-31 renal it was 20.7 µM; in the test on M14 melanoma, 9.78 µM; in the test on LOX IMVI melanoma, 22 µM. In addition, the TGI was 22.5 µM with MCF7 breast and 29.8 µM in the test with HS 578T breast.
Consider `Cc1cc(=O)n2c3c(c4c(cc13)c(CO)cc(=O)n4C)OC2`, for which the TGI with UACC-62 melanoma is 25.9 µM; in the test on MALME-3M melanoma, 28.5 µM; with IGROV1 ovarian, over 100 µM; with SNB-75 CNS it was 70.5 µM; with UO-31 renal, 40.2 µM; in the test on M14 melanoma, over 100 µM. The same molecule registered a TGI in the test on LOX IMVI melanoma of 21.1 µM.
Take `O=C(N/C(=C\c1ccc(/C=C(\NC(=O)c2ccccc2)c2nc3cc(Cl)ccc3[nH]2)cc1)c1nc2cc(Cl)ccc2[nH]1)c1ccccc1`: the TGI in the test on UACC-62 melanoma is 65 µM; with MALME-3M melanoma, over 100 µM; in the test on IGROV1 ovarian, over 100 µM; in the test on SNB-75 CNS, over 100 µM; in the test on UO-31 renal, over 100 µM; in the test on M14 melanoma it was over 100 µM. The same molecule gave a TGI in the test on LOX IMVI melanoma of over 100 µM.
On to `CC1(c2cccc(N)c2)C2C(=O)NC(=O)C1C(=O)NC2=O` (stereo not drawn), for which the TGI with UACC-62 melanoma is over 100 µM; in the test on MALME-3M melanoma it was 95 µM; in the test on IGROV1 ovarian, over 100 µM; with SNB-75 CNS, 73.2 µM; in the test with UO-31 renal, 67.8 µM; in the test with M14 melanoma, over 100 µM. The molecule also yielded a TGI in the test on LOX IMVI melanoma of 81.1 µM.
Consider `COC(=O)NN1C(C)=C(C(=O)OC)C2(C#N)C(C(=O)OC)=C(C)N(NC(=O)OC)C12N` (stereo not drawn), for which the TGI in the test on UACC-62 melanoma, in the test with MALME-3M melanoma, in the test with IGROV1 ovarian, in the test with UO-31 renal, with M14 melanoma and with LOX IMVI melanoma was over 100 µM throughout.
In the case of `CCN(CC)CCOc1ccc(/C=C2\C[C@H]3[C@H]4CC=C5C[C@@H](O)CC[C@]5(C)[C@H]4CC[C@]3(C)[C@H]2O)cc1OC`, the GI50 in the test on UACC-62 melanoma was 7.53 µM; in the test on IGROV1 ovarian, 1230 nM; with UO-31 renal it was 7.23 µM; in the test with M14 melanoma, 6120 nM; with LOX IMVI melanoma, 7.7 µM; with MCF7 breast it was 12.4 µM. The GI50 in the test on HS 578T breast was 8.66 µM. Further, the TGI was 14.5 µM in the test with UACC-62 melanoma; over 50 µM in the test with IGROV1 ovarian; 18 µM in the test on UO-31 renal; 16.8 µM in the test with M14 melanoma; 15.3 µM in the test on LOX IMVI melanoma; over 50 µM with MCF7 breast. The same molecule had a TGI with HS 578T breast of 18.7 µM.
As for `Cc1ccc2c(c1)C1(OC(=O)c3ccccc31)c1ccc(F)cc1O2` (stereo not drawn), the TGI with UACC-62 melanoma is over 100 µM; in the test with MALME-3M melanoma it was over 100 µM; in the test with IGROV1 ovarian, over 100 µM; with UO-31 renal, 75.8 µM; with M14 melanoma, over 100 µM; in the test with LOX IMVI melanoma, over 100 µM.
`Cc1ccc2c(c1)C1C(CO2)C(c2ccccc2)=NN1c1ccccc1` (stereo not drawn): the TGI with MALME-3M melanoma, in the test with IGROV1 ovarian, in the test with SNB-75 CNS, in the test with UO-31 renal and in the test with LOX IMVI melanoma was over 100 µM in each case.
With `Cn1c(=O)c2ccc(-c3ccc(Br)cc3)nc2n(C)c1=O`, the TGI in the test with UACC-62 melanoma was over 100 µM; in the test on MALME-3M melanoma, over 100 µM; in the test on IGROV1 ovarian it was over 100 µM; in the test with SNB-75 CNS, 73.5 µM; in the test with UO-31 renal it was over 100 µM; in the test with M14 melanoma it was over 100 µM. In the test on LOX IMVI melanoma, this molecule yielded a TGI of over 100 µM.
As for `CC(=O)OC12c3ccccc3-c3ccccc3C1C(C(=O)O)C2(Cl)C(=O)O` (stereo not drawn), the TGI in the test on MALME-3M melanoma, in the test on IGROV1 ovarian, in the test with SNB-75 CNS, in the test on UO-31 renal, in the test with M14 melanoma and in the test on LOX IMVI melanoma was over 10 µM each time. Further, the TGI in the test with MCF7 breast and with HS 578T breast was over 10 µM in each case.
On to `CSc1ccc(OCC2OC2O)cc1` (stereo not drawn), for which the TGI in the test with UACC-62 melanoma, in the test on MALME-3M melanoma, with IGROV1 ovarian, in the test with SNB-75 CNS, in the test on UO-31 renal and with M14 melanoma was over 100 µM each time. Further, in the test on LOX IMVI melanoma, the TGI was over 31.6 µM.
Consider `C=C1CC[C@@H]2[C@](C)(COC(C)=O)[C@H](OC(C)=O)CC[C@@]2(C)[C@@H]1CC(Nc1ccc(S(=O)(=O)Nc2cc(C)on2)cc1)C1=CCOC1=O` (stereo partly drawn), for which the GI50 in the test with UACC-62 melanoma was 2.13 µM; with IGROV1 ovarian it was 2360 nM; in the test on SNB-75 CNS, 2030 nM; in the test with BT-549 breast, 1790 nM; with UO-31 renal, 1.69 µM; in the test with M14 melanoma it was 1690 nM. For the same molecule, the GI50 in the test with LOX IMVI melanoma was 1.18 µM; in the test on HS 578T breast, 3.92 µM. Besides, the TGI is 7.06 µM with UACC-62 melanoma; 6.51 µM with IGROV1 ovarian; 11.5 µM in the test with SNB-75 CNS; 3.47 µM with BT-549 breast; 3.52 µM in the test with UO-31 renal; 4.17 µM with M14 melanoma. The TGI in the test with LOX IMVI melanoma turned out to be 2.54 µM; in the test on HS 578T breast, 26.7 µM.
Regarding `COC(=O)C1=Cc2cc(OC)c(OC)cc2[C@H](c2ccc(OC)c(OC)c2)C1C(=O)OC` (stereo partly drawn), the TGI with UACC-62 melanoma, with MALME-3M melanoma, with IGROV1 ovarian, in the test on SNB-75 CNS, in the test on UO-31 renal and in the test on M14 melanoma was over 100 µM throughout. Also, in the test with LOX IMVI melanoma, the TGI is over 100 µM.
